Active and inactive are the calls of the source. The calls are words filed in the database; no cut-off is given here.
Experiments:
[1] = molecular target: Mitogen-activated protein kinase 11 (Homo sapiens, UniProt Q15759); test: Inhibition of human wild type p38 beta using ATF2 as substrate preincubated for 2 hrs followed by ATP addition and measured every 2 mins for […] by spectrophotometric analysis
[2] = molecular target: Ephrin type-B receptor 4 (Homo sapiens, UniProt P54760); test: Inhibition of human wild type EPHB4 using PolyEY as substrate preincubated for 2 hrs followed by ATP addition and measured every 2 mins for […] by spectrophotometric analysis
[3] = molecular target: STE20-like serine/threonine-protein kinase (Homo sapiens, UniProt Q9H2G2); test: Inhibition of human wild type SLK using RB-S6P as substrate preincubated for 2 hrs followed by ATP addition and measured every 2 mins for […] by spectrophotometric analysis
[4] = molecular target: NUAK family SNF1-like kinase 2 (Homo sapiens, UniProt Q9H093); test: Inhibition of human wild type SNARK using Histon H2B as substrate preincubated for 2 hrs followed by ATP addition and measured every 2 mins for […] by spectrophotometric analysis
[5] = molecular target: Focal adhesion kinase 1 (Homo sapiens, UniProt Q05397); test: Inhibition of human wild type FAK using PolyEY as substrate preincubated for 2 hrs followed by ATP addition and measured every 2 mins for […] by spectrophotometric analysis
[6] = molecular target: Ribosomal protein S6 kinase alpha-6 (Homo sapiens, UniProt Q9UK32); test: Inhibition of human wild type RSK4 using RBER-GSK3([…] to […]) as substrate preincubated for 2 hrs followed by ATP addition and measured every 2 mins for […] by spectrophotometric analysis
[7] = molecular target: Serine/threonine-protein kinase SIK2 (Homo sapiens, UniProt Q9H0K1); test: Inhibition of human wild type SIK2 using RBER-CHKtide as substrate preincubated for 2 hrs followed by ATP addition and measured every 2 mins for […] by spectrophotometric analysis
[8] = Inhibition of human wild type PKA using bio-4xCHKT as substrate preincubated for 2 hrs followed by ATP addition and measured every 2 mins for […] by spectrophotometric analysis
[9] = molecular target: Serine/threonine-protein kinase TBK1 (Homo sapiens, UniProt Q9UHD2); test: Inhibition of human wild type TBK1 using Casein as substrate preincubated for 2 hrs followed by ATP addition and measured every 2 mins for […] by spectrophotometric analysis
[10] = molecular target: Aurora kinase B (Homo sapiens, UniProt Q96GD4); test: Inhibition of human wild type AuroraB using bio-4xCHKT as substrate preincubated for 2 hrs followed by ATP addition and measured every 2 mins for […] by spectrophotometric analysis
[11] = molecular target: Ephrin type-B receptor 3 (Homo sapiens, UniProt P54753); test: Inhibition of human wild type EPHB3 using PolyEY as substrate preincubated for 2 hrs followed by ATP addition and measured every 2 mins for […] by spectrophotometric analysis
[12] = molecular target: SRSF protein kinase 3 (Homo sapiens, UniProt Q9UPE1); test: Inhibition of human wild type MSSK1 using RBER-CHKtide as substrate preincubated for 2 hrs followed by ATP addition and measured every 2 mins for […] by spectrophotometric analysis
[13] = molecular target: Aurora kinase A (Homo sapiens, UniProt O14965); test: Inhibition of human wild type AuroraA using bio-4xCHKT as substrate preincubated for 2 hrs followed by ATP addition and measured every 2 mins for […] by spectrophotometric analysis
[14] = molecular target: TGF-beta receptor type-2 (Homo sapiens, UniProt P37173); test: Inhibition of human wild type TGFbetaR2 using RB-S6P as substrate preincubated for 2 hrs followed by ATP addition and measured every 2 mins for […] by spectrophotometric analysis
[15] = molecular target: Serine/threonine-protein kinase D2 (Homo sapiens, UniProt Q9BZL6); test: Inhibition of human wild type PKD2 using RBER-CHKtide as substrate preincubated for 2 hrs followed by ATP addition and measured every 2 mins for […] by spectrophotometric analysis
[16] = molecular target: Tyrosine-protein kinase ZAP-70 (Homo sapiens, UniProt P43403); test: Inhibition of human wild type ZAP70 using PolyEY as substrate preincubated for 2 hrs followed by ATP addition and measured every 2 mins for […] by spectrophotometric analysis
[17] = molecular target: Serine/threonine-protein kinase NLK (Homo sapiens, UniProt Q9UBE8); test: Inhibition of human wild type NLK using RBER-GSK3([…]-[…]) as substrate preincubated for 2 hrs followed by ATP addition and measured every 2 mins for […] by spectrophotometric analysis
[18] = molecular target: Inhibitor of nuclear factor kappa-B kinase subunit alpha (Homo sapiens, UniProt O15111); test: Inhibition of human wild type IKK alpha using RBER-CHKtide as substrate preincubated for 2 hrs followed by ATP addition and measured every 2 mins for […] by spectrophotometric analysis
[19] = molecular target: Serine/threonine-protein kinase WNK2 (Homo sapiens, UniProt Q9Y3S1); test: Inhibition of human wild type WNK2 using RBER-CHKtide as substrate preincubated for 2 hrs followed by ATP addition and measured every 2 mins for […] by spectrophotometric analysis
[20] = molecular target: Mitogen-activated protein kinase 1 (Homo sapiens, UniProt P28482); test: Inhibition of human wild type ERK2 using RBER-CHKtide as substrate preincubated for 2 hrs followed by ATP addition and measured every 2 mins for […] by spectrophotometric analysis
[21] = molecular target: PAS domain-containing serine/threonine-protein kinase (Homo sapiens, UniProt Q96RG2); test: Inhibition of human wild type PASK using RBER-CHKtide as substrate preincubated for 2 hrs followed by ATP addition and measured every 2 mins for […] by spectrophotometric analysis
[22] = molecular target: Insulin-like growth factor 1 receptor (Homo sapiens, UniProt P08069); test: Inhibition of human wild type IGF1R using PolyEY as substrate preincubated for 2 hrs followed by ATP addition and measured every 2 mins for […] by spectrophotometric analysis
[23] = molecular target: Mitogen-activated protein kinase 12 (Homo sapiens, UniProt P53778); test: Inhibition of human wild type p38 gamma using RBER-IRStide as substrate preincubated for 2 hrs followed by ATP addition and measured every 2 mins for […] by spectrophotometric analysis
[24] = molecular target: Serine/threonine-protein kinase ULK1 (Homo sapiens, UniProt O75385); test: Inhibition of human wild type ULK1 using Casein as substrate preincubated for 2 hrs followed by ATP addition and measured every 2 mins for […] by spectrophotometric analysis
[25] = molecular target: CDK3/Cyclin E (Homo sapiens, UniProt Q00526); test: Inhibition of human wild type CDK3/cyclinE using RBER-CHKtide as substrate preincubated for 2 hrs followed by ATP addition and measured every 2 mins for […] by spectrophotometric analysis; format: protein-complex assay
[26] = system: BaF3; test: Antileukemic activity against mouse BaF3 cells harbouring BCR-ABL1 T315I mutant non-transduced with 5-FU treated bone marrow xenografted in Balb/c mouse assessed as reduction in pleural effusions at 60 mg/kg, po administered twice daily; format: functional, organism-based
[27] = molecular target: Protein kinase C delta type (Homo sapiens, UniProt Q05655); test: Inhibition of human wild type PKC delta using 3xChocktide-PKC(19to 31) as substrate preincubated for 2 hrs followed by ATP addition and measured every 2 mins for […] by spectrophotometric analysis
[28] = molecular target: Dual specificity protein kinase TTK (Homo sapiens, UniProt P33981); test: Inhibition of human wild type TTK using RBER-CHKtide as substrate preincubated for 2 hrs followed by ATP addition and measured every 2 mins for […] by spectrophotometric analysis

Mitogen-activated protein kinase 1, sequence (P28482 whole entry, the tested form may be a part): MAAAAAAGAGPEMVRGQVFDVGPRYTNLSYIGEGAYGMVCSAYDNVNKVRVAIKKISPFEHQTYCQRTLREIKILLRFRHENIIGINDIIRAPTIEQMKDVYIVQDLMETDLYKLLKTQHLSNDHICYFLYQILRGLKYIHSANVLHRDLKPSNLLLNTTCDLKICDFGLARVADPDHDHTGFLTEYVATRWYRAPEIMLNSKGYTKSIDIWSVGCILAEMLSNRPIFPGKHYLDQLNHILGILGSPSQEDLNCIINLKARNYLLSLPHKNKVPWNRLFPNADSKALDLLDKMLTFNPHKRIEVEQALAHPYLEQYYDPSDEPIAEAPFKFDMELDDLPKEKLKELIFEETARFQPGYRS
Protein kinase C delta type, sequence (Q05655 whole entry): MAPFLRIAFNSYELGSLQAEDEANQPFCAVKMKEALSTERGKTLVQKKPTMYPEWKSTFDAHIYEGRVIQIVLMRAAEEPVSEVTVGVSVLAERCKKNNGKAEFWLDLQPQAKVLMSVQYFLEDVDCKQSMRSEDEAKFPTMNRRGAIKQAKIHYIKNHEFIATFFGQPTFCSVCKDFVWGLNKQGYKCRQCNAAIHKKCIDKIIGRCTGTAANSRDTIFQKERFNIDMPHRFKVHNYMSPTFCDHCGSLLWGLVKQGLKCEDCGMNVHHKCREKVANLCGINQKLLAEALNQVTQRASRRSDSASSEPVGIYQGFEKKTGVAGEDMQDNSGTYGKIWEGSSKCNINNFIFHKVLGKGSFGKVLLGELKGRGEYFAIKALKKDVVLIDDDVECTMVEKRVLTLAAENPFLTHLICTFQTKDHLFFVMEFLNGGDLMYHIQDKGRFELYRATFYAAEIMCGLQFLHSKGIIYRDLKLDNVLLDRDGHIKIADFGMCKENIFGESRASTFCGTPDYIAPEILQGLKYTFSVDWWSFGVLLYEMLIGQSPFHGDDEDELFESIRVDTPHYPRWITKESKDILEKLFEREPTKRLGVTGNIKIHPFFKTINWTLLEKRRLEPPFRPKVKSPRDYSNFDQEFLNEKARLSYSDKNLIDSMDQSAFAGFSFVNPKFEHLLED
Serine/threonine-protein kinase TBK1, sequence (Q9UHD2 whole entry): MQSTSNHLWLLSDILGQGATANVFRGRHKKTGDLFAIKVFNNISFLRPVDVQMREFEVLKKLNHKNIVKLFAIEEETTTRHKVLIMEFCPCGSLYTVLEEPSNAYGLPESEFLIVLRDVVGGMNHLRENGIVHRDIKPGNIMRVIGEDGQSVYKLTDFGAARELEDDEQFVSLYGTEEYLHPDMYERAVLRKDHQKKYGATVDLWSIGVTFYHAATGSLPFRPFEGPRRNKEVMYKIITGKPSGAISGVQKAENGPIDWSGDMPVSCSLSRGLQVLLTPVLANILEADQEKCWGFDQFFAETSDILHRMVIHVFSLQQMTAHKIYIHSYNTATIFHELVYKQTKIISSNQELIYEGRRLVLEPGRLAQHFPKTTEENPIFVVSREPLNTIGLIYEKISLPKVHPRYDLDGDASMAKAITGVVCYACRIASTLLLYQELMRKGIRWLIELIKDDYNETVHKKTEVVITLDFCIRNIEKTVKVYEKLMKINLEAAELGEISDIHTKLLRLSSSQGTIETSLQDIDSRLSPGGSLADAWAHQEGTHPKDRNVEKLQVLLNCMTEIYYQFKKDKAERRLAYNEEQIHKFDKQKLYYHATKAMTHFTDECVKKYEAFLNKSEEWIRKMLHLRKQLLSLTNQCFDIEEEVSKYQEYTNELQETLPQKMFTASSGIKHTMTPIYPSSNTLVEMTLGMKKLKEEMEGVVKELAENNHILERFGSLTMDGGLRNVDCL
SRSF protein kinase 3, sequence (Q9UPE1 whole entry): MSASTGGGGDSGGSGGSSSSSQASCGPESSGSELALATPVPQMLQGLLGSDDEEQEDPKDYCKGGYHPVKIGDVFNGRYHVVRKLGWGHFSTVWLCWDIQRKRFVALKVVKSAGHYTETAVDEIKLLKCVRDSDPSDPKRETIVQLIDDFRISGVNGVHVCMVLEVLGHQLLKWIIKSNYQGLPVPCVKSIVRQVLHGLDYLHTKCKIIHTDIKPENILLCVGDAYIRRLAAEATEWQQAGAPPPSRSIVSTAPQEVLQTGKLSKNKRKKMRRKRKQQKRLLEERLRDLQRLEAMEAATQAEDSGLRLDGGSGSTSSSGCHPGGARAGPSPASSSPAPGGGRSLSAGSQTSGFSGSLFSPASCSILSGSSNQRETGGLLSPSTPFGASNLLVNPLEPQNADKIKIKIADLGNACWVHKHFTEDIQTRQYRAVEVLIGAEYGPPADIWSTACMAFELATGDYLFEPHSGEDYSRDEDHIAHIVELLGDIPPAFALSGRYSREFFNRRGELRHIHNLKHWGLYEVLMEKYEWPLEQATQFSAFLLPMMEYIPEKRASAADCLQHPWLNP
Insulin-like growth factor 1 receptor, sequence (P08069 31-736 limits assumed): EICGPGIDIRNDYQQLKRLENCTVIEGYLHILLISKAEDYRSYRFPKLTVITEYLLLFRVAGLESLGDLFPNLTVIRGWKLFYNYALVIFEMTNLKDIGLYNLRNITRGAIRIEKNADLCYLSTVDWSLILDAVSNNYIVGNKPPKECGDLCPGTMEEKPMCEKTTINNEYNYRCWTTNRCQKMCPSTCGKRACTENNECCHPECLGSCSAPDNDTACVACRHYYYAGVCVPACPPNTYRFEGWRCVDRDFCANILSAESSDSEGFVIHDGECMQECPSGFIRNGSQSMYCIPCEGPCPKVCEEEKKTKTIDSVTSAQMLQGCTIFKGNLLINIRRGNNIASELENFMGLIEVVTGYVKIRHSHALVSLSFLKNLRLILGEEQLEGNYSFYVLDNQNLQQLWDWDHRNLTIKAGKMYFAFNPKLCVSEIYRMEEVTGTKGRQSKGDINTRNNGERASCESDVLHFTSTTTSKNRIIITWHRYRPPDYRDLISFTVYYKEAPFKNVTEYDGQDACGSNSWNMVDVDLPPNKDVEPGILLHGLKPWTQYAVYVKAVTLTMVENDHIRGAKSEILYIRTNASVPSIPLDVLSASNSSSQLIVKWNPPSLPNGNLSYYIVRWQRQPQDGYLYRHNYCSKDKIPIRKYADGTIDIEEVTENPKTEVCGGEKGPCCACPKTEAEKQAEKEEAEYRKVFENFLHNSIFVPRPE
Insulin-like growth factor 1 receptor, sequence (P08069 741-1367 limits assumed): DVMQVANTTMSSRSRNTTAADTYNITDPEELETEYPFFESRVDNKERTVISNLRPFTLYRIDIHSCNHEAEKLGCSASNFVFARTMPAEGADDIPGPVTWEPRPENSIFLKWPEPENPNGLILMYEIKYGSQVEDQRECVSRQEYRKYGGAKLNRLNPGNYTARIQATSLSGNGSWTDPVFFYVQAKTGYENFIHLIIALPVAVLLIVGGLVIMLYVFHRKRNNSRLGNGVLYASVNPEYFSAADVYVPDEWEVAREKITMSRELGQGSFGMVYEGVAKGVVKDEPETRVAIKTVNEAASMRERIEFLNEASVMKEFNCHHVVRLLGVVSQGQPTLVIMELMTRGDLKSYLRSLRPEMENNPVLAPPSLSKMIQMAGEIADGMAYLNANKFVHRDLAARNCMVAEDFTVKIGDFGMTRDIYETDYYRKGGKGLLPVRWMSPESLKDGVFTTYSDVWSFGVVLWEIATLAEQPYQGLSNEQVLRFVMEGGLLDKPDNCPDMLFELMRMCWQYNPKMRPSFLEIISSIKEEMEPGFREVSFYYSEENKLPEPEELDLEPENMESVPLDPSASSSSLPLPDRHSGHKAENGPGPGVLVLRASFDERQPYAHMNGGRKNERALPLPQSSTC
TGF-beta receptor type-2, sequence (P37173 whole entry): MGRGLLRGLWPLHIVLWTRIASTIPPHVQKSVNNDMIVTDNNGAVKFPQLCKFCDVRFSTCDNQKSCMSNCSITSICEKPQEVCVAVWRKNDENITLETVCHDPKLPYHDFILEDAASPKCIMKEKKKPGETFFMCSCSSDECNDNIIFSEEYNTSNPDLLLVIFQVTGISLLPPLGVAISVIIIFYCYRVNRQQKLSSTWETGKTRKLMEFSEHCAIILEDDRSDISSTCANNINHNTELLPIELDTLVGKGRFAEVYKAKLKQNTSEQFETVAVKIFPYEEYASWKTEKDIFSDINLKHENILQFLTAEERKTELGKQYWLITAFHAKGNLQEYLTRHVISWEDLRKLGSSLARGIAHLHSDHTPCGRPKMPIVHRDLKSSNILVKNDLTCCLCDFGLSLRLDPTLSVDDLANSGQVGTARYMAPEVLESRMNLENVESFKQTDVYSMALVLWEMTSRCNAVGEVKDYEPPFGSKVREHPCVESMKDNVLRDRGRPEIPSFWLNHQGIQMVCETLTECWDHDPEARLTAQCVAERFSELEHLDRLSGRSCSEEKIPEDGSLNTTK
Aurora kinase A, sequence (O14965 whole entry): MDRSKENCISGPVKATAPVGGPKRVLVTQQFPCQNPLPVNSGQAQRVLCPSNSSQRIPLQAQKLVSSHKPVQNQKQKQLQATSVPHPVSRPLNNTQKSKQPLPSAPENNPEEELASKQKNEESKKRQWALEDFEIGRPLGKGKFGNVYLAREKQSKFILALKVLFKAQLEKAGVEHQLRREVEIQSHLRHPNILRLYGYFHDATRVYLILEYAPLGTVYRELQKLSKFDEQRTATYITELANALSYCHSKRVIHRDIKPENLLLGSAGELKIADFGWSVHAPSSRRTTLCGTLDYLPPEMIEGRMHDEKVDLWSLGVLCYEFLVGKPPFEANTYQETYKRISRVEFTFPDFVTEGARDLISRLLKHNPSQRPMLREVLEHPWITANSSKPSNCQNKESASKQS
Mitogen-activated protein kinase 11, sequence (Q15759 whole entry): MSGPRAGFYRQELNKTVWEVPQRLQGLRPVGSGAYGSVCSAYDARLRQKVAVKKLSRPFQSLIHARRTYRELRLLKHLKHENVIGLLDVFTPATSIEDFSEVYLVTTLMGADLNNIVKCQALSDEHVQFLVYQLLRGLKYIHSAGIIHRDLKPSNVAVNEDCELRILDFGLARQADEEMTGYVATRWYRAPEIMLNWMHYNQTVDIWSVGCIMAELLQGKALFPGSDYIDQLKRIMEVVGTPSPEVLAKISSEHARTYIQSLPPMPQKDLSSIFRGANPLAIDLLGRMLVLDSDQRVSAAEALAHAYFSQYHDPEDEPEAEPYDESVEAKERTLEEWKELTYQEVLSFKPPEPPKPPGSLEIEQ

IC50 [1]: 0.79 µM
IC50 [2]: 0.064 µM
IC50 [3]: 0.67 µM
IC50 [4]: > 1 µM
IC50 [5]: 0.25 µM
IC50 [6]: > 1 µM
IC50 [7]: > 1 µM
IC50 [8]: > 1 µM
IC50 [9]: > 1 µM
IC50 [10]: > 1 µM
IC50 [11]: > 1 µM
IC50 [12]: > 1 µM
IC50 [13]: > 5 µM
IC50 [14]: > 1 µM
IC50 [15]: > 1 µM
IC50 [16]: > 1 µM
IC50 [17]: > 1 µM
IC50 [18]: > 1 µM
IC50 [19]: > 1 µM
IC50 [20]: > 1 µM
IC50 [21]: > 1 µM
IC50 [22]: > 1 µM
IC50 [23]: > 1 µM
IC50 [24]: > 1 µM
IC50 [25]: > 1 µM
IC50 [27]: > 1 µM
IC50 [28]: 0.29 µM
SMILES: CNC(=O)c1cc(Oc2ccc(NC(=O)Nc3cc(C(C)(C)C)nn3-c3ccc4ncccc4c3)c(F)c2)ccn1 [REBASTINIB]
Activity [26]: Active
